Test results as given in PubChem BioAssay AID2060327 (Molecular Pharmacology Branch, DTP, NCI, 2025).

Tested on: PC-3 multi-cell spheroids, viability
Experiment: Anticancer human tumor PC-3 cell line growth inhibition [IpAb];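 note: spheroids exposed to compounds for 7 days before readout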;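 for viability, T/C: 100% = DMSO vehicle control wells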
Details: for IC50: curve of first compound; for viability, T/C: stronger effect = lower value
Source text: Combinatorial screen of targeted agents with ipatasertib and abemaciclib in multi-cell type tumor spheroids
A high-throughput screen of multi-cell type tumor spheroids was designed to identify active combinations of targeted small molecules and ipatasertib or abemaciclib. Complex spheroids include a stromal component modeled by human endothelial cells (HUVEC) and fibroblasts modeled by human mesenchymal stem cells (MSCs). The concentration ranges selected for each drug and investigational agent were based upon clinically achievable concentrations if the clinical Cmax of the agent was known.
Compounds. The drugs and investigational agents: ipatasertib (NSC767898), abemaciclib(NSC768073), selumetinib (NSC741078), trametinib (758246), adavosertib (NSC754352), everolimus (NSC733504), sapanisertib (NSC764658), vemurafenib (NSC761431), venetoclax (NSC766270), copanlisib (NSC809693), apelisib (NSC765974), palbociblib (NSC758247), vemurafenib (NSC761431), dabrafenib (NSC764134), ravoxertinib (NSC781343), BMS-387032 (NSC767048), sotorasib (NSC818433), talazoparib (NSC767125) and afursertib (NSC778305), were obtained from the National Cancer Institute (NCI) Developmental Therapeutics Program Chemical Repository. The FDA-approved anticancer drug set is available from the NCI Developmental Therapeutics Program. […] The stock solutions were prepared in dimethyl sulfoxide (DMSO, Sigma-Aldrich, St. Louis, MO, cat. D2650) at 800-fold the tested concentration and stored at -70 degrees C prior to their use. All drugs and investigational agents were tested over a range starting from a high concentration at or near the clinical Cmax and decreasing in half-log increments. If the clinical Cmax for an agent had not been determined, the highest concentration tested was 10 microM.
NCI60 Cell Culture. NCI60 cell lines were obtained from the NCI Developmental Therapeutics Program Tumor Repository. For each lot of cells, the Repository performed Applied Biosystems AmpFLSTR Identifiler testing with PCR amplification to confirm consistency with the published Identifier STR profile for each cell line. Cells were kept in continuous culture for no more than 20 passages. The optimal seeding densities for each of the cell lines at each time point assessed were determined prior to performing the concentration response studies. Briefly, the NCI60 human tumor lines were grown as monolayers in RPMI 1640 medium supplemented with 10% FBS and 2 mmol/L L-glutamine.
An additional 9 lines were from the NCI60 cell line panel including MDA-MB-231 breast carcinoma, MDA-MB-468 breast carcinoma, MCF7 breast carcinoma, Hs578T breast carcinoma, MALME-3M melanoma, SK-MEL-2 melanoma, SK-OV-3 ovarian carcinoma, DU-145 prostate carcinoma, PC-3 prostate carcinoma, all cell lines along with major genetic alterations are listed on Table 2. Pooled donor human umbilical vein endothelial cells (HUVEC, Lonza, cat. CC-2519) and human mesenchymal stem cells (hMSC, Lonza, cat. PT-2501) were purchased from Lonza (Walkersville, MD).
PDMR cell lines were grown in complete medium (DC medium): Dulbecco's modified Eagle's medium (DMEM)/F12 supplemented with 5% fetal bovine serum (FBS), 2 mM L-glutamine, 100 U/mL penicillin and 100 µg/ml streptomycin, 0.4 µg/ml hydrocortisone, 10 ng/ml epidermal growth factor (EGF) recombinant human protein, 24 µg/mL adenine, and 0.1 mg/mL primocin. During culture from frozen stock vials, PDMR cells were cultured in the same medium containing 10 µM Y-27632 (see Table 3). The PDCs were cultured in complete DMEM/F12 media without 10 microM Y-27632 dihydrochloride for at least two passages prior to the screen. The pooled donor HUVEC and hMSC were cultured in endothelial cell growth medium 2 (PromoCell, Heidelberg, Germany, cat. C-22011) and mesenchymal stem cell growth medium 2 (PromoCell, cat. C-28009), respectively. For all experiments, HUVEC and hMSC were used at passages </=5.
[…]

[1] = second compound 0.1 µM, first compound 0.0316 µM
[2] = second compound 0.1 µM, first compound 0.1 µM
[3] = second compound 0.1 µM, first compound 0.316 µM
[4] = second compound 0.1 µM, first compound 1 µM
[5] = second compound 0.316 µM, first compound 0.0316 µM
[6] = second compound 0.316 µM, first compound 0.1 µM
[7] = second compound 0.316 µM, first compound 0.316 µM
[8] = second compound 0.316 µM, first compound 1 µM
[9] = second compound 1 µM, first compound 0.0316 µM
[10] = second compound 1 µM, first compound 0.1 µM
[11] = second compound 1 µM, first compound 0.316 µM
[12] = second compound 1 µM, first compound 1 µM
[13] = second compound 3.16 µM, first compound 0.0316 µM
[14] = second compound 3.16 µM, first compound 0.1 µM
[15] = second compound 3.16 µM, first compound 0.316 µM
[16] = second compound 3.16 µM, first compound 1 µM
[17] = second compound 10 µM, first compound 0.0316 µM
[18] = second compound 10 µM, first compound 0.1 µM
[19] = second compound 10 µM, first compound 0.316 µM
[20] = second compound 10 µM, first compound 1 µM

With `CC(=O)c1c(C)c2cnc(Nc3ccc(N4CCNCC4)cn3)nc2n(C2CCCC2)c1=O` + CC(C)NCC(C(=O)N1CCN(c2ncnc3c2C(C)CC3O)CC1)c1ccc(Cl)cc1 the IC50 (second compound 0.1 µM) was > 0.3 µM, the IC50 (second compound 0.316 µM) was < 0.000949 µM and the IC50 (second compound 1 µM) was < 0.000949 µM. For the same compound, the IC50 (second compound 3.16 µM) was < 0.000949 µM, the IC50 (second compound 10 µM) was < 0.000949 µM and the viability, T/C (second compound 0.1 µM, first compound 0.000949 µM) was 74.1%. The viability, T/C (second compound 0.1 µM, first compound 0.003 µM) was 63.7%, the viability, T/C (second compound 0.1 µM, first compound 0.00949 µM) was 51% and the viability, T/C (second compound 0.1 µM, first compound 0.03 µM) was 51.6%. The viability, T/C (second compound 0.1 µM, first compound 0.0949 µM) was 52.9%, the viability, T/C (second compound 0.1 µM, first compound 0.3 µM) was 48.2% and the viability, T/C (second compound 0.316 µM, first compound 0.000949 µM) was 44.5%. The viability, T/C (second compound 0.316 µM, first compound 0.003 µM) was 43.3%, the viability, T/C (second compound 0.316 µM, first compound 0.00949 µM) was 43.8% and the viability, T/C (second compound 0.316 µM, first compound 0.03 µM) was 40.1%. It also gave a viability, T/C (second compound 0.316 µM, first compound 0.0949 µM) of 33.8%, a viability, T/C (second compound 0.316 µM, first compound 0.3 µM) of 30.7% and a viability, T/C (second compound 1 µM, first compound 0.000949 µM) of 26.3%. It also gave a viability, T/C (second compound 1 µM, first compound 0.003 µM) of 23.8%, a viability, T/C (second compound 1 µM, first compound 0.00949 µM) of 19.6% and a viability, T/C (second compound 1 µM, first compound 0.03 µM) of 17.2%. The viability, T/C (second compound 1 µM, first compound 0.0949 µM) was 15.8%, the viability, T/C (second compound 1 µM, first compound 0.3 µM) was 14.8% and the viability, T/C (second compound 3.16 µM, first compound 0.000949 µM) was 15.3%. For the same compound, the viability, T/C (second compound 3.16 µM, first compound 0.003 µM) was 14.2%, the viability, T/C (second compound 3.16 µM, first compound 0.00949 µM) was 14.2% and the viability, T/C (second compound 3.16 µM, first compound 0.03 µM) was 13.3%. For the same compound, the viability, T/C (second compound 3.16 µM, first compound 0.0949 µM) was 11.3%, the viability, T/C (second compound 3.16 µM, first compound 0.3 µM) was 10.7% and the viability, T/C (second compound 10 µM, first compound 0.000949 µM) was 13.5%. The viability, T/C (second compound 10 µM, first compound 0.003 µM) was 12.9%, the viability, T/C (second compound 10 µM, first compound 0.00949 µM) was 12.5% and the viability, T/C (second compound 10 µM, first compound 0.03 µM) was 11.6%. The viability, T/C (second compound 10 µM, first compound 0.0949 µM) was 11.5% and the viability, T/C (second compound 10 µM, first compound 0.3 µM) was 10.8%.
With `COc1c(OCCCN2CCOCC2)ccc2c3n(c(=NC(=O)c4cnc(N)nc4)nc12)CCN3` + CC(C)NCC(C(=O)N1CCN(c2ncnc3c2C(C)CC3O)CC1)c1ccc(Cl)cc1 the IC50 (second compound 0.1 µM) was 0.0214 µM, the IC50 (second compound 0.316 µM) was < 0.00316 µM and the IC50 (second compound 1 µM) was < 0.00316 µM. For the same compound, the IC50 (second compound 3.16 µM) was < 0.00316 µM, the IC50 (second compound 10 µM) was < 0.00316 µM and the viability, T/C (second compound 0.1 µM, first compound 0.00316 µM) was 81.5%. For the same compound, the viability, T/C (second compound 0.1 µM, first compound 0.01 µM) was 59.7%, the viability, T/C [1] was 48.1% and the viability, T/C [2] was 18%. For the same compound, the viability, T/C [3] was 6.89%, the viability, T/C [4] was 4.7% and the viability, T/C (second compound 0.316 µM, first compound 0.00316 µM) was 45.1%. For the same compound, the viability, T/C (second compound 0.316 µM, first compound 0.01 µM) was 40%, the viability, T/C [5] was 29.5% and the viability, T/C [6] was 12.2%. The viability, T/C [7] was 5.71%, the viability, T/C [8] was 4.51% and the viability, T/C (second compound 1 µM, first compound 0.00316 µM) was 24.3%. The viability, T/C (second compound 1 µM, first compound 0.01 µM) was 18.7%, the viability, T/C [9] was 14% and the viability, T/C [10] was 8.53%. It also gave a viability, T/C [11] of 5.57%, a viability, T/C [12] of 4.27% and a viability, T/C (second compound 3.16 µM, first compound 0.00316 µM) of 15.1%. For the same compound, the viability, T/C (second compound 3.16 µM, first compound 0.01 µM) was 12.5%, the viability, T/C [13] was 11.1% and the viability, T/C [14] was 7.88%. It also gave a viability, T/C [15] of 4.58%, a viability, T/C [16] of 3.91% and a viability, T/C (second compound 10 µM, first compound 0.00316 µM) of 12.8%. It also gave a viability, T/C (second compound 10 µM, first compound 0.01 µM) of 11.5%, a viability, T/C [17] of 10.3% and a viability, T/C [18] of 6.13%. The viability, T/C [19] was 4.33% and the viability, T/C [20] was 4.03%.
`Cc1nc(NC(=O)N2CCCC2C(N)=O)sc1-c1ccnc(C(C)(C)C(F)(F)F)c1` (stereo not given) + CC(C)NCC(C(=O)N1CCN(c2ncnc3c2C(C)CC3O)CC1)c1ccc(Cl)cc1 was tested, and the IC50 (second compound 0.1 µM) was 0.955 µM, the IC50 (second compound 0.316 µM) was < 0.0316 µM and the IC50 (second compound 1 µM) was < 0.0316 µM. The IC50 (second compound 3.16 µM) was < 0.0316 µM, the IC50 (second compound 10 µM) was < 0.0316 µM and the viability, T/C [1] was 60.7%. For the same compound, the viability, T/C [2] was 51.8%, the viability, T/C [3] was 47.8% and the viability, T/C [4] was 49.5%. For the same compound, the viability, T/C (second compound 0.1 µM, first compound 3.16 µM) was 41.8%, the viability, T/C (second compound 0.1 µM, first compound 10 µM) was 10.6% and the viability, T/C [5] was 43.7%. It also gave a viability, T/C [6] of 44.4%, a viability, T/C [7] of 39.2% and a viability, T/C [8] of 30.2%. The viability, T/C (second compound 0.316 µM, first compound 3.16 µM) was 24.6%, the viability, T/C (second compound 0.316 µM, first compound 10 µM) was 9.66% and the viability, T/C [9] was 26.5%. It also gave a viability, T/C [10] of 24.1%, a viability, T/C [11] of 17.8% and a viability, T/C [12] of 15.8%. For the same compound, the viability, T/C (second compound 1 µM, first compound 3.16 µM) was 12.5%, the viability, T/C (second compound 1 µM, first compound 10 µM) was 5.72% and the viability, T/C [13] was 14.2%. It also gave a viability, T/C [14] of 14.7%, a viability, T/C [15] of 11.8% and a viability, T/C [16] of 11.4%. For the same compound, the viability, T/C (second compound 3.16 µM, first compound 3.16 µM) was 8.54%, the viability, T/C (second compound 3.16 µM, first compound 10 µM) was 3.24% and the viability, T/C [17] was 13.4%. The viability, T/C [18] was 12.8%, the viability, T/C [19] was 10.5% and the viability, T/C [20] was 9.02%. The viability, T/C (second compound 10 µM, first compound 3.16 µM) was 7.87% and the viability, T/C (second compound 10 µM, first compound 10 µM) was 2.4%.
